Reference: ChEMBL document CHEMBL4270640, “Discovery of new 2, 5-disubstituted 1,3-selenazoles as selective human carbonic anhydrase IX inhibitors with potent anti-tumor activity” (Eur J Med Chem, 2018)
pKi: −log10 of the molar value. Activity calls are given as the source filed them. The rule behind the calls is not given here.

Assays:
Carbonic anhydrase 9 = Carbonic anhydrase 9 (Homo sapiens, UniProt Q16790); test: Inhibition of recombinant human carbonic anhydrase 9 incubated for 15 mins prior to testing by stopped flow CO2 hydration assay
PC-3 [1] = test: Antiproliferative activity against human PC3 cells assessed as cell viability at 1 uM after 48 hrs under normoxic condition by MTT assay relative to control; format: functional; settings: for viability at 1 µM: PC-3, 48 h, read-out: Activity
MDA-MB-231 [2] = test: Antiproliferative activity against human MDA-MB-231 cells assessed as cell viability at 1 uM after 48 hrs under normoxic condition by MTT assay relative to control; format: functional; settings: for viability at 1 µM: MDA-MB-231, 48 h, read-out: Activity
PC-3 [3] = test: Antiproliferative activity against human PC3 cells assessed as cell viability at 10 uM after 48 hrs under normoxic condition by MTT assay relative to control; format: functional
PC-3 [4] = test: Antiproliferative activity against human PC3 cells at 10 uM after 48 hrs under hypoxic condition by MTT assay relative to control; format: functional
PC-3 [5] = test: Antiproliferative activity against human PC3 cells assessed as cell viability at 30 uM after 48 hrs under normoxic condition by MTT assay relative to control; format: functional; settings: PC-3, 48 h, read-out: Activity
PC-3 [6] = test: Antiproliferative activity against human PC3 cells assessed as cell viability at 100 uM after 48 hrs under normoxic condition by MTT assay relative to control; format: functional; settings: PC-3, 48 h, read-out: Activity
MDA-MB-231 [7] = test: Antiproliferative activity against human MDA-MB-231 cells assessed as cell killing at 10 uM after 48 hrs under normoxic condition by MTT assay relative to control; format: functional
MDA-MB-231 [8] = test: Antiproliferative activity against human MDA-MB-231 cells assessed as cell killing at 30 to 100 uM after 48 hrs under normoxic condition by MTT assay; format: functional, cell-based
MDA-MB-231 [9] = test: Antiproliferative activity against human MDA-MB-231 cells assessed as cell viability at 100 uM after 48 hrs under hypoxic condition by MTT assay relative to control; format: functional; settings: MDA-MB-231, 48 h, read-out: Activity
PC-3 [10] = test: Antiproliferative activity against human PC3 cells assessed as cell viability at 1 uM after 48 hrs under hypoxic condition by MTT assay relative to control; format: functional; settings: PC-3, 48 h, read-out: Activity

| Structure (SMILES) | pKi (Carbonic anhydrase 9) | further results |
| --- | --- | --- |
| NS(=O)(=O)c1ccc(-c2ncc(C[Te]c3ccccc3)[se]2)cc1 | 8.14 | – |
| Cc1cnc(-c2ccc(S(N)(=O)=O)cc2)[se]1 | 8.16 | – |
| NS(=O)(=O)c1ccc(-c2ncc(-c3ccc(Br)cc3)[se]2)cc1 | 9.06 | – |
| N=C(N)SCc1cnc(-c2ccc(S(N)(=O)=O)cc2)[se]1 | 8.15 | – |
| NS(=O)(=O)c1ccc(-c2ncc(CSc3ccccc3)[se]2)cc1 | 8.27 | – |
| NS(=O)(=O)c1ccc(-c2ncc(C[Se]c3ccccc3)[se]2)cc1 | 8.04 | – |
| NS(=O)(=O)c1ccc(-c2ncc(CCl)[se]2)cc1 | 8.55 | – |
| NS(=O)(=O)c1ccc(-c2ncc(C(=O)O)[se]2)cc1 | 8.05 | – |
| NS(=O)(=O)c1ccc(-c2ncc(-c3ccccc3)[se]2)cc1 | 8.19 | – |
| COc1ccc([Te]Cc2cnc(-c3ccc(S(N)(=O)=O)cc3)[se]2)cc1 | 9.05 | viability at 1 µM (PC-3 [1]): 23%; viability at 1 µM (MDA-MB-231 [2]): 16% |
| Cc1ccc([Se]Cc2cnc(-c3ccc(S(N)(=O)=O)cc3)[se]2)cc1 | 8.15 | – |
| Cc1ccc([Te]Cc2cnc(-c3ccc(S(N)(=O)=O)cc3)[se]2)cc1 | 8.59 | – |
| COc1cccc(-c2cnc(-c3ccc(S(N)(=O)=O)cc3)[se]2)c1 | 7.25 | – |
| COc1ccc([Se]Cc2cnc(-c3ccc(S(N)(=O)=O)cc3)[se]2)cc1 | 9.26 | Activity (PC-3 [1]): inactive; Activity (PC-3 [3]): inactive; Activity (PC-3 [4]): 77%; viability at 30 µM (PC-3 [5]): 59%; viability at 100 µM (PC-3 [6]): 11%; Activity (MDA-MB-231 [2]): inactive; Activity (MDA-MB-231 [7]): inactive; Activity (MDA-MB-231 [8]): Active; viability at 100 µM (MDA-MB-231 [9]): 46% |
| NS(=O)(=O)c1ccc(-c2ncc(-c3ccc(Cl)cc3)[se]2)cc1 | 8.08 | – |
| NS(=O)(=O)c1ccc(-c2ncc(-c3ccc([N+](=O)[O-])cc3)[se]2)cc1 | 8.09 | viability at 1 µM (PC-3 [1]): 60%; viability at 10 µM (PC-3 [3]; PC-3, 48 h, read-out: Activity): 10%; viability at 1 µM (PC-3 [10]): 32%; viability at 1 µM (MDA-MB-231 [2]): 73%; Activity (MDA-MB-231 [7]): >90% |
| NC(=[Se])c1ccc(S(N)(=O)=O)cc1 | 8.12 | – |
| NS(=O)(=O)c1ccc(-c2ncc(-c3ccc(F)cc3)[se]2)cc1 | 8.12 | – |
